According to BigSolDB 2.1:

CCOc1ccccc1C(N)=O
solubility (mole fraction)
Details	288.15 K	293.15 K	298.15 K	303.15 K	308.15 K	313.15 K	318.15 K	323.15 K	328.15 K
in 1,4-dioxane	0.0116	0.0144	0.0175	0.0221	0.0272	0.0341	0.0427	0.0527	0.0653
in 2-butanone	0.0124	0.015	0.0179	0.0218	0.0268	0.0335	0.0413	0.0501	0.0609
in DMF	0.0485	0.0566	0.0653	0.0754	0.0875	0.101	0.117	0.133	0.151
in acetone	0.0124	0.0153	0.0184	0.0226	0.0277	0.0344	0.0424	0.0507	0.0611
in ethyl formate	0.00842	0.0103	0.0122	0.0151	0.0188	0.0238	0.0293	0.0354	0.0429
in isopropanol	0.00616	0.00748	0.00916	0.0122	0.0157	0.0205	0.0265	0.0339	0.0423
in methyl acetate	0.00747	0.00924	0.0114	0.0142	0.0182	0.023	0.0285	0.0349	0.0428
in n-butanol	0.00781	0.00989	0.0122	0.0158	0.0199	0.0251	0.0322	0.0402	0.0498
in n-butyl acetate	0.00505	0.00603	0.00705	0.0089	0.011	0.0134	0.0165	0.0201	0.0245
in n-pentanol	0.00858	0.0106	0.0131	0.0165	0.0207	0.026	0.0329	0.0406	0.0504
in n-propyl acetate	0.00566	0.0069	0.0082	0.0101	0.0122	0.015	0.0185	0.0227	0.0271
in sec-butanol	0.00735	0.00924	0.0117	0.0153	0.0198	0.0256	0.0326	0.0411	0.0518
